Assay results published in US9920089B2, “Process for producing a solid form of abiraterone acetate” (ZACH SYSTEM, priority 2013, dated 2018).

How the values were obtained:
[1] = Particle size distribution by laser diffraction, dry powder method (Malvern Mastersizer 2000); type: physicochemical; details: milled dried product after spherical agglomeration
Procedure: PSD was determined by laser diffraction-dry powder method with a Malvern Mastersizer 2000 device.

human cytochrome P45017α = target: T1, human cytochrome P45017α (Homo sapiens, UniProt P05093); details: qualitative statement; cited from earlier work
T1 sequence (P05093 1-508): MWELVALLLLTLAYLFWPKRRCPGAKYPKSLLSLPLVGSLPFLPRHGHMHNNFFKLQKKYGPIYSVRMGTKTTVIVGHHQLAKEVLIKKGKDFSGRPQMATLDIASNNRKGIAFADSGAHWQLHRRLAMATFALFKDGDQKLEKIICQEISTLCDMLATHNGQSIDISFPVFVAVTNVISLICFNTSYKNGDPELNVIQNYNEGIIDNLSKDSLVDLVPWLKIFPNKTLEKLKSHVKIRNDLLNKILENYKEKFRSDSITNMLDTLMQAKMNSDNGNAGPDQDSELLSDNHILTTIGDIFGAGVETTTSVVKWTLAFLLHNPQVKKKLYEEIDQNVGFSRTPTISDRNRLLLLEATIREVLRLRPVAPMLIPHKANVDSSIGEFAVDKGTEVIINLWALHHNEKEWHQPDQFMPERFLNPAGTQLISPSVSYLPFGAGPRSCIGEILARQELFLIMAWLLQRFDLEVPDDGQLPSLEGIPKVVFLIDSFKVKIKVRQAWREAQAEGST

[2] = cited from earlier work

SMILES	Measured Particle Size Distribution D(0.5) [1] [μm]	further results
CC(=O)O[C@H]1CC[C@@]2(C)C(=CC[C@@H]3[C@@H]2CC[C@]2(C)C(c4cccnc4)=CC[C@@H]32)C1 [Example 1, abiraterone acetate]	4.9	–
CC(=O)O[C@H]1CC[C@@]2(C)C(=CC[C@@H]3[C@@H]2CC[C@]2(C)C(c4cccnc4)=CC[C@@H]32)C1 [Example 3, abiraterone acetate]	3.7	–
C[C@]12CC[C@H](O)CC1=CC[C@@H]1[C@@H]2CC[C@]2(C)C(c3cccnc3)=CC[C@@H]12 [Abiraterone, 17-(3-pyridyl)-androsta-5,16-dien-3β-ol]	–	Inhibition of human cytochrome P45017α (human cytochrome P45017α): potent inhibitor
CC(=O)O[C@H]1CC[C@@]2(C)C(=CC[C@@H]3[C@@H]2CC[C@]2(C)C(c4cccnc4)=CC[C@@H]32)C1 [Abiraterone acetate, (3β)-17-(3-pyridinyl)-androsta-5,16-dien-3-yl acetate]	–	Solubility in 0.1N HCl solution ([2]; 0.1N HCl solution): very slightly soluble; Solubility in aqueous media ([2]; aqueous media, pH range 2.0 to 12.9): practically insoluble; Solubility in organic solvents ([2]; organic solvents): soluble to freely soluble
CC(=O)O[C@H]1CC[C@@]2(C)C(=CC[C@@H]3[C@@H]2CC[C@]2(C)C(c4cccnc4)=CC[C@@H]32)C1 [Example 4, abiraterone acetate]	6.5	–
CC(=O)O[C@H]1CC[C@@]2(C)C(=CC[C@@H]3[C@@H]2CC[C@]2(C)C(c4cccnc4)=CC[C@@H]32)C1 [Example 2, abiraterone acetate]	10.7	–
